From patent US6300353A, “Azoles for treatment of fungal infections” (Basilea Pharmaceutica AG, a Swiss Company, priority 1998, dated 2001)
Like-named read-outs stand apart in the source and are kept apart here.

Legend:
Aspergillus fumigatus [1] = assay: In vivo efficacy, pulmonary aspergillosis model; conditions: in Rattus norvegicus, 336 h
Aspergillus fumigatus [2] = assay: In vivo efficacy, systemic aspergillosis model; conditions: in Rattus norvegicus, 336 h
[3] = Conversion of compounds of formula (I') to compounds of formula (II) in human plasma; assay type: in vitro ADME; conditions: 37° C.; for remaining at 5 min / metabolised at 5 min: incubation time 5 min; for remaining at 5 min: read-out: Observed (%) Comp. (I'); for metabolised at 5 min: read-out: Observed (%) Compound (II)
Description: In addition, the azole of formula I' are chemically stable in aqueous solution at room temperature more than three days, but are efficiently converted into compounds of formula (II) in either mouse, rat, monkey or human plasma. The conversion of representatives of the new azole compounds of the general formula (I') to compounds of formula (II) in human plasma are shown in Table 4. The compounds of formula (I') were incubated with human plasma at a concentration of 10.quadrature.g/ml at 37° C. for up to 20 min.

Candida albicans = assay: In vivo efficacy, systemic candidiasis model; conditions: in Rattus norvegicus, 336 h
physchem = conditions: water
CYP2C9 = CYP2C9 (Homo sapiens, UniProt P11712); assay: In vitro P450 inhibitory activity (CYP2C9, tolbutamide 4-hydroxylation), human liver microsomes
Sequence of CYP2C9 (P11712 whole entry): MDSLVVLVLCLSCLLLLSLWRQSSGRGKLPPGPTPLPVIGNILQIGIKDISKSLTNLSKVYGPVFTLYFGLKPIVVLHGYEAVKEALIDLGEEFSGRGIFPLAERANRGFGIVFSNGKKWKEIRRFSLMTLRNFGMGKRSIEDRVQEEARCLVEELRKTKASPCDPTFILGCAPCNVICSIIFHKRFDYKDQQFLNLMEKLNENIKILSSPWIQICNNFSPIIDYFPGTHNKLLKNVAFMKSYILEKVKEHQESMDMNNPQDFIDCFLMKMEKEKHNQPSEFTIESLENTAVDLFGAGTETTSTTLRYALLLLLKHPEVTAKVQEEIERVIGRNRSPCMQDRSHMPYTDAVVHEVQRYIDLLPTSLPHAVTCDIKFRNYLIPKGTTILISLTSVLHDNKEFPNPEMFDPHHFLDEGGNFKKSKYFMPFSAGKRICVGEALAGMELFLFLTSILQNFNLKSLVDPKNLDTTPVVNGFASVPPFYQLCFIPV
Description: Each azole compound at different concentrations was incubated with a specific substrate for each CYP, human liver microsomes and NADPH at 37° C. […] The substrate concentrations and incubation conditions were as follows:

CYP3A4 = CYP3A4 (Homo sapiens, UniProt P08684); assay: In vitro P450 inhibitory activity (CYP3A4, midazolam 1-hydroxylation), human liver microsomes; assay type: in vitro ADME; conditions: midazolam 10 μM, 10 min, read-out: P450 inhibition IC50, CYP 3A4
Sequence of CYP3A4 (P08684 whole entry): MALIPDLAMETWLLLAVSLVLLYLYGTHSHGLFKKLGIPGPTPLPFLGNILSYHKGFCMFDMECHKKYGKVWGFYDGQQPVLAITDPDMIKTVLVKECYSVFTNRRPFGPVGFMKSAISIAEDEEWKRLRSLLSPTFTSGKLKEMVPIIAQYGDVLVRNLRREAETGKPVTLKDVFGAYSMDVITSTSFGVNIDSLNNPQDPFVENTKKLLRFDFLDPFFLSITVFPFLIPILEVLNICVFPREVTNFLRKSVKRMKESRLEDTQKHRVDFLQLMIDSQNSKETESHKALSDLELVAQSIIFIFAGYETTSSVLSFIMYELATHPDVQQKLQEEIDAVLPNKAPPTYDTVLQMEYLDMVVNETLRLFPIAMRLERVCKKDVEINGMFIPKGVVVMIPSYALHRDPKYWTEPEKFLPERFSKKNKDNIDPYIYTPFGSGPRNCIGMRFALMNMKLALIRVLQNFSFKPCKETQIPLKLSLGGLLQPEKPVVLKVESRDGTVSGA

[4] = iv, read-out: Effective dose 50% (ED50), pulmonary aspergillosis, i.v.
[5] = iv, read-out: Effective dose 50% (ED50), systemic aspergillosis, i.v.
[6] = po, read-out: Effective dose 50% (ED50), systemic candidiasis, p.o.

**Q.** Which results are given for CNCC(=O)Oc1c(C)cc(C[n+]2cnn(C[C@](O)(c3cc(F)ccc3F)[C@@H](C)c3nc(-c4ccc(C#N)cc4)cs3)c2)cc1C.[Br-] [Example 1, 1-{(2R,3R)-3-[4-(4-cyano-phenyl)-thiazol-2-yl]-2-(2,5-difluoro-phenyl)-2-hydroxy-butyl}-4-(3,5-dimethyl-4-methylaminoacetoxy-benzyl)-1H-[1,2,4]triazol-4-ium bromide]?
**A.** ED50 (Aspergillus fumigatus [1]; [4]): 8 ± 4.2 µmol/kg; ED50 (Aspergillus fumigatus [1]; po, read-out: Effective dose 50% (ED50), pulmonary aspergillosis, p.o.): 7.4 ± 3.8 µmol/kg; ED50 (Aspergillus fumigatus [2]; [5]): 3 µmol/kg; ED50 (Aspergillus fumigatus [2]; po, read-out: Effective dose 50% (ED50), systemic aspergillosis, p.o.): 5.8 µmol/kg; half-life [3]: < 1 min; remaining at 5 min [3]: < 5%; metabolised at 5 min [3]: 96%; ED50 (Candida albicans; iv, read-out: Effective dose 50% (ED50), systemic candidiasis, iv.): 5.3 µmol/kg; ED50 (Candida albicans; [6]): 5.3 µmol/kg; solubility (physchem): 22 mg/mL

**Q.** Which half-life [3] does the source give for CNCC(=O)Oc1c(C)cc(C[n+]2cnn(C[C@](O)(c3cc(F)c(F)cc3F)[C@@H](C)c3nc(-c4ccc(C#N)cc4)cs3)c2)cc1C.Cl.[Br-] [Example 3, 1-[(2R,3R)-3-[4-(4-cyanophenyl)thiazol-2-yl]-2-hydroxy-2-(2,4,5-trifluorophenyl)butyl]-4-(3,5-dimethyl-4-methylaminoacetoxybenzyl)-1H-[1,2,4]triazol-4-ium bromide hydrochloride] here?
**A.** < 1 min

**Q.** What about the remaining at 5 min [3] of the same molecule?
**A.** < 5%

**Q.** What about the metabolised at 5 min [3] of the same molecule?
**A.** 89%

**Q.** And the solubility (physchem)?
**A.** > 7 mg/mL

**Q.** With C[C@@H](c1nc(-c2ccc(C#N)cc2)cs1)[C@](O)(Cn1cncn1)c1cc(F)ccc1F [Example 4] as the molecule, how does the IC50 (CYP2C9) read?
**A.** 35.1 µM

**Q.** For C[C@@H](c1nc(-c2ccc(C#N)cc2)cs1)[C@](O)(Cn1cncn1)c1cc(F)c(F)cc1F [Example 5], which IC50 (CYP2C9) is on record?
**A.** 18.4 µM

**Q.** What about the IC50 (CYP3A4) of the same molecule?
**A.** 23 µM

**Q.** For OC(Cn1cncn1)(Cn1cncn1)c1ccc(F)cc1F [Fluconazole, reference compound], which ED50 (Candida albicans; [6]) is on record?
**A.** 1.4 µmol/kg

**Q.** For CCC(C)n1ncn(-c2ccc(N3CCN(c4ccc(OCC5COC(Cn6cncn6)(c6ccc(Cl)cc6Cl)O5)cc4)CC3)cc2)c1=O (stereo not shown) [Itraconazole, reference compound], which ED50 (Aspergillus fumigatus [1]; [4]) is on record?
**A.** 2 ± 1.1 µmol/kg

**Q.** What about the ED50 (Aspergillus fumigatus [2]; [5]) of the same molecule?
**A.** 4 µmol/kg

**Q.** What about the ED50 (Candida albicans; [6]) of the same molecule?
**A.** 3.9 ± 2.2 µmol/kg

**Q.** What about the IC50 (CYP2C9) of the same molecule?
**A.** 25.7 µM
